Reference: US5189169A (priority 1991, dated 1993)
“And” between values parts separate entries of the source, which are not always exact repeats. Equal entries are not always repeated.

What was measured:
[1] = test system: four grassy weeds: wild oat, watergrass, green foxtail and crabgrass; assay: Pre-emergence herbicidal activity, grassy weeds (Table III); assay type: in vivo; details: 2.24 kg/ha, 2-3 weeks after treatment
Experimental: (§1) The herbicidal effect was observed by comparing the extent of weed control in test flats treated with the compounds against that occurring in similar non-treated control flats. All were applied at 3.57 lb/A (4 kg/ha) to pre-emergence and post-emergence screening flats. An 80 gal/A (748.3 1/ha) spray volume was utilized. Post-emergence flats were seeded 12 days prior to treatment. Pre-emergence flats were seeded one day prior to treatment. Overhead watering of pre-emergence flats and soil surface watering of post-emergence flats, so as to avoid wetting the foliage, were carried out for the duration of the test.
(§2) Weed seeds were planted in a flat at a seed depth of 0.5 inch (1.3 cm). Soil for flats was prepared using loam soil fortified with 17-17-17 fertilizer (N-P2 O5 -K2 O on a weight basis) and Captan 80W fungicide. The test weeds were as follows:
(§3) The spray solutions were prepared by dissolving 240 mg of test compound in 20 ml of acetone containing 1% polyoxyethylene sorbitan monolaurate emulsifier, then adding 20 ml of water to the resulting solution. The spray solutions were applied using a linear spray table. Pre-emergence flats are raised to the level of the post-emergence foliage canopy by setting the flats on a wooden block.
(§4) The degree of weed control was visually assessed and recorded as percentage control compared to the growth of the same species in an untreated check flat of the same age. The rating scale ranges from 0 to 100%, where 0 equals no effect with plant growth equal to the untreated control, and 100 equals complete kill.
(§5) Compounds 68 to 145 in Table I were tested generally similarly to Compounds No. 1 to 67 with the following differences: The rate of application was 2 lb/acre (2.24 kg/ha), no 6-day evaluations were made, and the weeds were:
(§6) Four grassy weeds: wild oat, watergrass, green foxtail and crabgrass (Digitaria sanguinalis);
(§7) Ratings were taken 2-3 weeks after treatment.

[2] = test system: three broadleaf weeds: wild mustard, redroot pigweed and curly dock; assay: Post-emergence herbicidal activity, broadleaf weeds (Table III); assay type: in vivo, Brassica kaber, Amaranthus retroflexus, Rumex crispus; details: 2.24 kg/ha, 2-3 weeks after treatment
Experimental: as §1, §2, §3, §4, §5
(§8) Three broadleaf weeds: wild mustard, redroot pigweed (Amaranthus retroflexus) and curly dock (Rumex crispus).
as §7

[3] = test system: three broadleaf weeds: wild mustard, redroot pigweed and curly dock; assay: Pre-emergence herbicidal activity, broadleaf weeds (Table III); assay type: in vivo, Brassica kaber, Amaranthus retroflexus, Rumex crispus; details: 2.24 kg/ha, 2-3 weeks after treatment
Experimental: as §1, §2, §3, §4, §5, §8, §7

[4] = test system: four grassy weeds: wild oat, watergrass, green foxtail and crabgrass; assay: Post-emergence herbicidal activity, grassy weeds (Table III); assay type: in vivo; details: 2.24 kg/ha, 2-3 weeks after treatment
Experimental: as §1, §2, §3, §4, §5, §6, §7

yellow nutsedge [5] = test system: yellow nutsedge; parameters: species or system Cyperus esculentus; details: in vivo
yellow nutsedge [6] = test system: yellow nutsedge; parameters: species or system Cyperus esculentus; details: in vivo; remark: listed apart in the source
[7] = test system: three grassy weeds (wild oat, watergrass, foxtail); parameters: species or system Avena fatua, Echinochloa crusgalli, Setaria viridis; details: in vivo
[8] = test system: three broadleaf weeds (morning glory, mustard, velvetleaf); parameters: species or system Ipomoea purpurea, Brassica kaber, Abutilon theophrasti; details: in vivo
[9] = test system: three broadleaf weeds (morning glory, mustard, velvetleaf); parameters: species or system Ipomoea purpurea, Brassica kaber, Abutilon theophrasti; details: in vivo; remark: listed apart in the source

Structure (SMILES) | % Control, Pre-Emergence, GR Avg. [1] [%] | % Control, Post-Emergence, BL Avg. [2] [%] | % Control, Pre-Emergence, BL Avg. [3] [%] | % Control, Post-Emergence, GR Avg. [4] [%] | % Control, Post-emergence, NS (yellow nutsedge [5]) [%] | % Control, Pre-emergence, NS (yellow nutsedge [6]) [%] | % Control, Pre-emergence, GR avg. [7] [%] | % Control, Pre-emergence, BL avg. [8] [%] | % Control, Post-emergence, BL avg. [9]
CCCCN(CC)P(=O)(SCC)N(CCC)CCC (stereo not drawn) [Compound 88] | 0 | 96 | 0 | 89 | – | – | – | – | –
CCCCN(CCC(C)C)P(=O)(SCCC)N(CCCC)CCC(C)C [Compound 52] | – | – | – | – | 0 | 0 | 0 | 0 | 90% and 86%
CCCN(CCC)P(=O)(SCC)N(CCC)CCC [Compound 70] | 5 | 99 | 10 | 82 | – | – | – | – | –
CCCN(CCC)P(=O)(SC(C)C)N(CCC)CCC [Compound 79] | 35 | 99 | 50 | 85 | – | – | – | – | –
C=CCSP(=O)(N(CCC)CCC)N(CCC)CCC [Compound 99] | 22 | 99 | 37 | 58 | – | – | – | – | –
CCCCN(CCCC)P(=O)(SCC)N(CCC)CCC (stereo not drawn) [Compound 123] | 0 | 89 | 0 | 65 | – | – | – | – | –
C=CCSP(=O)(N(CCC)CCC)N(CCCC)CCCC (stereo not drawn) [Compound 129] | 0 | 86 | 0 | 69 | – | – | – | – | –
CCCCSP(=O)(N(CCCC)CCCC)N(CCCC)CCCC [Compound 83] | 5 | 99 | 7 | 82 | – | – | – | – | –
CCCN(CCC)P(=O)(SC1CCCCC1)N(CCC)CCC [Compound 118] | 0 | 63 | 0 | 30 | – | – | – | – | –
C=CCSP(=O)(N(CC)CCCC)N(CCC)CCC (stereo not drawn) [Compound 115] | 0 | 86 | 0 | 70 | – | – | – | – | –
CCCCN(CCCC)P(=O)(SC(C)C)N(C)C (stereo not drawn) [Compound 109] | 23 | 98 | 20 | 85 | – | – | – | – | –
CCCCCSP(=O)(N(CC)CCCC)N(CCC)CCC (stereo not drawn) [Compound 133] | 0 | 97 | 10 | 59 | – | – | – | – | –
CCCCN(CCCC)P(=O)(SC(C)CC)N(CCC)CCC (stereo not drawn) [Compound 127] | 0 | 99 | 0 | 59 | – | – | – | – | –
CCCCCSP(=O)(N(CCCC)CCCC)N(CCCC)CCCC [Compound 132] | 8 | 67 | 20 | 40 | – | – | – | – | –
CCCSP(=O)(N(CC)CC)N(CCC)CCC (stereo not drawn) [Compound 145] | 0 | 87 | 30 | 60 | – | – | – | – | –
CCCCN(CCCC)P(=O)(SC(C)CC)N(CC)CC (stereo not drawn) [Compound 102] | 30 | 99 | 40 | 70 | – | – | – | – | –
CCCSP(=O)(N(CCC)CCC)N(C)c1cc(Cl)ccc1Cl (stereo not drawn) [Compound 34] | – | – | – | – | 0 | 0 | 0 | 0 | 80% and 93%
CCCN(CCC)P(=O)(Sc1ccccc1Br)N(CCC)CCC [Compound 8] | – | – | – | – | 0 | 0 | 0 | 0 | 50% and 55%
